Test results from US20260130906A1, “THERAPY COMPRISING ANTI-CD19 ANTIBODY AND SUMO-ACTIVATING ENZYME INHIBITOR” (TAKEDA PHARMACEUTICAL COMPANY LIMITED, priority 2021, published 2026).

Key:
[1] = test system: NK cells co-cultured with DAUDI cells; assay: Degranulation of NK cells (CD107a); format: cell-based, human; settings: PBMCs pre-treated 1 μM TAK-981 24 h and/or 0.1 or 10 nM tafasitamab; E:T 10:1; 3 h; vs DMSO control or mono treatments; FIG. 2
Procedure: Whole Blood was collected from healthy volunteers. PBMCs were isolated via density-gradient centrifugation using Biocoll (Biochrome) or Pancoll (PAN Biotech) separating solution and SepMate tubes (STEMCELL Technologies).
Freshly isolated PBMCs were first pre-treated with 1 μM TAK-981 or DMSO-containing buffer for 24 hours. PBMCs with or without TAK-981 pre-treatment were co-cultured with DAUDI cells at an E:T ratio of 10:1 and incubated with 0.1 or 10 nM tafasitamab or no antibody at 37° C. and 5% CO2. After 1 hour, 2 μM Monensin was added to each well and CD107a expression was analyzed by flow cytometry after a total incubation time of 3 hours.

RAMOS = assay: ADCP assay (macrophages); format: cell-based; settings: macrophages pre-treated 1 μM TAK-981 and/or 1 nM tafasitamab, E:T 2:1, 3 h, FIG. 4
Procedure: Monocytes were positively selected from PBMCs using CD14 MicroBeads on a MACS LS column according to the manufacturer's protocol (Miltenyi Biotec). Isoltaed cells were re-suspended in RPMI medium supplemented with 10% FCS and 1× GlutaMax. Monocytes were maturated into macrophages in T-flasks for 6 to 7 days in the presence of 50 ng/ml M-CSF.
After maturation, macrophages were stained with 2 μM CFSE and detached using 5 mM EDTA and scraping. After washing with PBS, macrophages were re-suspended in medium containing either DMSO (negative control) or 1 μM TAK-981 and allowed to re-attach in 96 well culture plates for 16-24 hours. Target cells were stained using the CellTrace Violet Cell Proliferation Kit (Invitrogen) and co-cultured with pre-treated macrophages in the presence or absence of 1 nM tafasitamab for 3 hours at an E:T ratio of 2:1. The cells were detached using 0.05% Trypsin-EDTA and transferred into multi-well flow cytometry plates. Using flow cytometry the percentage of phagocytosis was evaluated, defined as the percentage of double positive cells out of all CellTrace Violet positive cells.

[2] = test system: Daudi human xenograft tumor model; assay: Study 1: Daudi human xenograft tumor model; format: in vivo, CB17 SCID mice; settings: for tumor growth inhibition as a single agent (in words): Daudi human Burkitt's lymphoma mouse model; for GRI % / Tumor volume on Day 21 (±SEM): Daudi; for GRI %: Day 21, vs vehicle; for Tumor volume on Day 21 (±SEM): in mm³ (unit assumed)
Procedure: The differences in the tumor growth trends over time between pairs of treatment groups were assessed by fitting each animal's data to a simple exponential growth model and comparing the mean growth rates of the two groups, as described in more detail below. The difference in the growth rates was summarized by the GRI, which is the reduction in growth rate experienced by the treatment group relative to that of the reference group, expressed as a fraction of the vehicle growth rate.
A GRI greater than 100% is interpreted as tumor regression when the vehicle group is the same as the reference group. A negative value of the GRI means that the tumors in the treatment group grew faster than the tumors in the reference group. Statistical significance was determined using an unpaired t-test.
Low tumor volumes can cause problems with the data analysis, so all measurements below 25 cubic mm (including 0 values) were excluded from the analysis. After this exclusion step, the tumor volume was assumed to follow an exponential growth model. […]
Daudi is a human Burkitt's Lymphoma cell line. A Daudi human xenograft tumor model was generated by subcutaneous inoculation in the flank of 9 week old female CB17 SCID mice (Charles River Laboratories, Wilmington, MA) with 2.0×10^6 Daudi cells (cell suspension in 0.1 ml RPMI with Matrigel 1:1). When the mean tumor volume reached approximately 140 mm^3, the animals were randomized into one vehicle control group and seven treatment groups (n=7/group) as described in Table 1a. Mice were then dosed with 20% HPβCD or Compound I-263a and/or tafasitamab over a 3 week period. In the combination treatment groups, I-263a was administered first, followed immediately by the administration of tafasitamab. Tumor growth and body weight were measured twice per week during the treatment and post-treatment periods, and mice were humanely euthanized once they had reached their humane endpoint. Tumors were measured using Vernier calipers and volumes were calculated using standard equation: V=W^2×L/2, where V=volume, W=width, and L=length for the tumor.
A 0.8625 mg/mL stock solution of I-263a was formulated weekly in 20% HPβCD and administered intravenously (IV) based on an average body weight using a 0.2 mL dosing volume. Final dose of I-263a received was 7.5 mg/kg. I-263a was administered on a BIW schedule for 3 weeks (Days 0, 4, 7, 11, 14, 18). Tafasitamab was formulated prior to each injection in 0.9% saline at 0.354, 1.15, and 2.3 mg/mL. Final dose of tafasitamab received was 3, 10, or 20 mg/kg based on average body weight. Tafasitamab was administered intraperitoneally (IP) using a 0.2 mL dosing volume, on a BIW schedule for 3 weeks (Days 0, 4, 7, 11, 14, 18). The vehicle group received IV treatment with the vehicle for I-263a (20% HPβCD) on a BIW schedule for three weeks (Days 0, 4, 7, 11, 14, 18).
Statistical analysis for growth rate inhibition was performed on data up to and including Day 21.

Compound	percentage of CD107+ NK cells [1]	Phagocytosis (RAMOS)	tumor growth inhibition as a single agent (in words) [2]	GRI % ([2]; tafasitamab 3 mg/kg IP BIW) [%]	GRI % ([2]; tafasitamab 10 mg/kg IP BIW) [%]	GRI % ([2]; tafasitamab 20 mg/kg IP BIW) [%]	Tumor volume on Day 21 (±SEM) ([2]; tafasitamab 3 mg/kg IP BIW 3 weeks)	Tumor volume on Day 21 (±SEM) ([2]; tafasitamab 10 mg/kg IP BIW 3 weeks)	Tumor volume on Day 21 (±SEM) ([2]; tafasitamab 20 mg/kg IP BIW 3 weeks)	GRI % ([2]; I-263a 7.5 mg/kg IV BIW) [%]	Tumor volume on Day 21 (±SEM) ([2]; I-263a 7.5 mg/kg IV BIW 3 weeks)
Tafasitamab: humanized monoclonal antibody that targets the antigen CD19, engineered in the IgG Fc-region to enhance ADCC; sequences in Table 1	elevated percentage of CD107+ NK cells	effectively phagocytosed	inhibits tumor growth	24	28	38	1142 ± 135.1	1132.7 ± 116.5	835.2 ± 89.1		
Cc1sc(C(=O)c2cncnc2N[C@@H]2C[C@H](COS(N)(=O)=O)[C@@H](O)C2)cc1[C@@H]1NCCc2ccc(Cl)cc21 [Compound I-263a, [(1R,2S,4R)-4-{[5-({4-[(1R)-7-chloro-1,2,3,4-tetrahydroisoquinolin-1-yl]-5-methyl-2-thienyl}carbonyl)pyrimidin-4-yl]amino}-2-hydroxycyclopentyl]methyl sulfamate]	elevated percentage of CD107+ NK cells	effectively phagocytosed	inhibits tumor growth							32	1015.9 ± 137.9
